Measurements from ChEMBL document CHEMBL3638759, “Substituted 2-aza-bicyclo[2.2.1]heptane-3-carboxylic acid (cyano-methyl)-amides inhibitors of cathepsin C” (2014).
pKi: −log10 of the molar value.

Molecular target: Dipeptidyl peptidase 1 (Homo sapiens, UniProt P53634)
Experiment: Inhibition Assay: The following buffers were used: MES buffer: 25 mM MES, 50 mM NaCl, 5 mM DTT, adjusted to pH 6.0, containing 0.1% BSA; TAGZyme Buffer: 20 mM NaH2PO4, 150 mM NaCl adjusted to pH is 6.0 with HClAssay Conditions:The recombinant human DPPI was diluted in TAGZyme buffer to 1 U/ml (38.1 ug/ml, respectively), and then activated by mixing in a 1:2 ratio with a Cysteamine aqueous solution (2 mM) and incubating for 5 mM at room temperature.Five uL test compound (final concentration 0.1 nM to 100 uM) in aqua bidest (containing 4% DMSO, final DMSO concentration 1%) were mixed with 10 uL of DPPI in MES buffer (final concentration 0.0125 ng/uL) and incubated for 10 min. Then, 5 uL of substrate in MES buffer (final concentration 50 uM) were added. The microtiter plates were then incubated at room temperature for […] Then, the reaction was stopped by adding 10 uL of Gly-Phe-DMK in MES-buffer (final concentration 1 uM).

Dipeptidyl peptidase 1, sequence (P53634 25-134 limits assumed): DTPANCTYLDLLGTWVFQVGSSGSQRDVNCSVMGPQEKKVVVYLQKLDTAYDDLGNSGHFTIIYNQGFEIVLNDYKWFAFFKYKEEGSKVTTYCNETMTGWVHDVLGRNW
Dipeptidyl peptidase 1, sequence (P53634 231-394 limits assumed): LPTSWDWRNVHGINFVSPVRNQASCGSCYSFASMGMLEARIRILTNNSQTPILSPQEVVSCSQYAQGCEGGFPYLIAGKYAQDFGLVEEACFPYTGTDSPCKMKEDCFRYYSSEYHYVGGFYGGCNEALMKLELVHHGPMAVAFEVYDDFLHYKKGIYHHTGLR
Dipeptidyl peptidase 1, sequence (P53634 395-463 limits assumed): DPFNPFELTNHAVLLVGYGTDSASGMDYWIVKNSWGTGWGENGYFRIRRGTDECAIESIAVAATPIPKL

- pKi: 8.44
SMILES: CN1C(=O)Cc2ccc(-c3sc(CC(C#N)NC(=O)[C@H]4N[C@@H]5CC[C@H]4C5)c(F)c3Br)cc21 (stereo partly specified)
